ChEMBL document CHEMBL3714758, “3H-imidazo[4,5-b]pyridin-5-ol derivatives useful in the treatment of GPR81 receptor disorders” (2013)
Active and inactive are the calls of the source. No cut-off for these calls is given here.

Columns and labels:
Mus musculus = assay: Reduction in circulating free fatty acids in food-deprived C57/B16 mouse at 100 mg/kg, ip measured after 30 mins by NEFA assay; format: functional, organism-based
Adipocyte = assay: Inhibition of lipolysis in Sprague-Dawley rat epididymal adipocytes pre-incubated for 10 mins before theophylline addition followed by further incubation for 3 hrs by microplate reader based assay; format: functional, cell-based
Rattus norvegicus = assay: Reduction in circulating free fatty acids in food-deprived Sprague-Dawley rat at 1 to 100 mg/kg, po measured after 10 to 240 mins post dose by NEFA assay; format: functional, organism-based

SMILES	inhibition (Mus musculus)	IC50 (Adipocyte)	inhibition (Rattus norvegicus)
O=C(O)c1cccnc1	Active	–	–
Oc1ccc2ncn(-c3ccccc3Cl)c2n1	Active	234 nM	Active
Oc1ccc2ncn(-c3ccccc3C(F)(F)F)c2n1	Active	–	–
